Literature values in patent US20090054305A1, “Mixtures of Amylin and Insulin” (Novo Nordisk A/S, priority 2006, published 2009).
Ends that are not written are not given here.

conditions: treated test animals, e.g. provoking marked hyperlactemia followed by hyperglycemia

| Substance | amylin activity in vivo |
| --- | --- |
| ^18Arg^25, 28Pro-h-amylin | amylin activity in vivo |
| des-^1Lys^18Arg^25, 28Pro-h-amylin | amylin activity in vivo |
| ^28Pro-h-amylin | amylin activity in vivo |
| des-^1Lys-h-amylin (CNTATCATQRLANFLVHSSNNFGAILSSTNVGSNTY; not fully specified (C-terminus, bridges); ends and bridges not checked; UniProt P10997 34-70, looked up, variant K1*) [human amylin analog where the lysine in position 1 is lacking] | amylin activity in vivo |

conditions: compared to human amylin

| Substance | solubility and stability characteristics |
| --- | --- |
| ^25Pro^26Val^28, 29Pro-h-amylin | more desirable solubility and stability characteristics |
| ^18Arg^25, 28Pro-h-amylin | more desirable solubility and stability characteristics |
